# Source: US9757317B2, “Cosmetic compositions and methods for inhibiting melanin synthesis” (The Procter & Gamble Company, priority 2014, dated 2017)
# Where a name gives a salt, the structure may show the parent alone.
# System: B16-F1 mouse melanoma cells
# Assay: Melanin Synthesis Assay
# Assay type: cell-based
# Description: A B16-F1 mouse melanoma cell line may be employed as an assay to measure melanin synthesis. The B16-F1 cells may be obtained from American Tissue Culture Collection, Virginia, USA. The cell culture medium that may be used in the assay may comprise 500 mL of Dulbecco's Modified Eagle's Medium (DMEM), 50 mL Fetal Bovine Serum (FBS), and 5 mL of penicillin-streptomycin liquid. B16-F1 cells that are cultured in this medium and grown to greater than 90% confluency synthesize melanin. While not intending to be bound by any theory, it is hypothesized that melanin synthesis is stimulated by the culture medium and/or stress induced by growth to a high confluency. The DMEM and FBS can be obtained from American Tissue Culture Collection and the penicillin-streptomycin liquid can be obtained from Invitrogen, Inc., California, USA. Equipment used in the assay include a CO2 incubator, such as a Form a Series Model 3110 by Therma Scientific, Massachusetts, USA; a hemocytometer, such as a Bright Line model by Hauser Scientific, Pennsylvania, USA; and a UV-Visible Spectrum Plate Reader, such as a SpectraMax250 from Molecular Devices, California, USA. The assay steps may include:
# Day 0—Cell Growth: Warm the cell culture medium to 37° C. and place 29 mL into a T-150 flask. Add approximately 1×10^6 of B16-F1 passage 1 mouse cells to the T-150 flask and incubate for 3 days at 37° C., 5% CO2, 90% relative humidity, until ˜80% confluency;
# Day 3—Initiate a 96 Well Plate: At day 3, trypsinize the cells from the T-150 flask and determine the concentration of cells using a hemocytometer. Initiate a 96 well plate with 2,500 cells per well in 100 microliters of cell culture medium. Incubate the plate at 37° C., 5% CO2, 90% relative humidity for about 2 days until at least 20% to 40% confluency;
# Day 5—Decant the cell culture medium from the plate and replace with fresh culture medium (100 uL per well). Add 1 microliter of [test compound] diluted in a [water or DSMO] solvent. Multiple dilution ratios may be tested in order to generate a dose response curve, wherein preferably three wells are treated with each dilution ratio. Controls comprise wells having the cell culture medium, B16-F1 cells, and the solvent (control #1); wells comprising the cell culture medium and the solvent (control #2); and optionally wells comprising the cell culture medium, solvent and [test compound] when necessary to control for the [test compound] background color (control #3);
# Day 7—Measure Melanin Production: Cells should have a confluency greater than ˜90%. […] Add 100 microliters of a 0.75% sodium hydroxide solution to each well. Read the 96 well plate using the UV-Vis Plate Reader at 410 nm to optically measure the amount of melanin produced between wells that are treated with [test compound] and control wells that are not treated with a test compound. Wells in which melanin is produced typically appear brownish in color. Wells in which little melanin is produced typically appear clear to light purple in color. Percentage of melanin synthesis inhibition is calculated by the following equation: […]
# Where OD410 is the Optical Density at 410 nm as measured by the UV-Vis Spectrum Plate Reader.
# When Control #3 is used, the formula for percentage melanin synthesis inhibition is: […]
# Using generally the assay outlined above, melanin synthesis in treated B16-F1 cells was inhibited as compared to control cells as shown in Table 1.
# [1] = test material (0.002 to 0.5%) combined with Bis/HD/Nia
# [2] = test material (0.002 to 0.5%) combined with Bis/UP/Nia
SMILES,Average Melanin % Inhibition [1],Average Melanin % Inhibition [2],further results
"CCCCCCCCCCCCCCCCCC(=O)OCC(O)CO (racemic) [1-Stearoyl rac-Glycerol, 1-Stearoyl-rac-glycerol]",,,Average Melanin % Inhibition (test material (0.002 to 0.5%) combined with Bis/HD/UP/Nia): 38%
"CCCCCCCCCCCCCCCCCCO [Stearyl Alcohol, Stearyl alcohol]",60%,73%,
"CCCCC(CC)COC(=O)CCCCC(=O)OCC(CC)CCCC (stereo not shown) [Bis (2-ethylhexyl) Adipate, Bis (2-ethylhexyl) adipate]",,42%,
"CCCCC(CC)COC(=O)/C=C\C(=O)OCC(CC)CCCC (stereo not shown) [Bis (2-ethylhexyl) Maleate, Bis (2-ethylhexyl) maleate]",32%,45%,
"CCCCC(CC)COC(=O)CCCCCCCCC(=O)OCC(CC)CCCC (stereo not shown) [Bis (2-ethylhexyl) Sebacate, Bis (2-ethylhexyl) sebacate]",79%,88%,
"CCCCCCCCCCCCCCCC(=O)OCC [Ethyl Palmitate, Ethyl palmitate]",82%,84%,
"CCCCCCCCCCCCCCCCCCOCC(O)CO (stereo not shown) [Sample 8, batyl alcohol]",,,"Average Melanin % Inhibition (Table 2, 0.03% Bat, 0.003% Bis, 0.0005% HD, 0.0001% UP, 0.0005% Nia where included): 7%"
CCCCCCCCCCC(O)CCCC (stereo not shown) [5-Pentadecanol],46%,,
"CC(C)=CCC[C@](C)(O)[C@@H]1CC=C(C)CC1 [Sample 1, bisabolol]",,,"Average Melanin % Inhibition (Table 1, B16-F1 cells, 0.1% Bis, 0.00056% HD, 0.00011% UP, 0.00056% Nia where included): 2.2%"
